Measurements as given in patent publication US10738071B2, “Polymorphic forms of sofosbuvir” (Mylan Laboratories Limited, priority 2016, dated 2020).

Test: physical and chemical stability of sofosbuvir form-M3 on storage (water content, PXRD, HPLC purity)
Format: physicochemical
Description: The crystalline sofosbuvir form-M3 disclosed herein may be characterized by X-ray powder diffraction. Therefore, samples of crystalline sofosbuvir form-M3 were analyzed on a PANalytical, X'pert PRO powder diffractometer equipped with goniometer of θ/θ configuration and X'Celerator detector. The Cu-anode X-ray tube was operated at 40 kV and 30 mA. The experiments were conducted over the 2θ range of 2.0°-50.0°, 0.030° step size and 50 seconds step time.
Water content was determined on an 841 Titrando Karl-Fischer titrator (Metrohm) by placing 40 mL dehydrated methanol in the titration vessel and titrating with a standardized reagent to reach the electrometric endpoint. A sample (e.g., 0.20 g sofosbuvir form-M3) was added, the mixture was stirred for 1 minute, then titrated to the endpoint with a Karl-Fischer reagent. For each determination, fresh methanol was used. The following calculations may be used to determine water content of each sample:
The physical and chemical stability of sofosbuvir form-M3 was determined by storing the samples at 25±2° C./60±5% relative humidity (RH) and at 40±2° C./75±5% RH for 6 months. The samples were tested to determine water content, detect degradation crystalline form by PXRD analysis, and measure purity by HPLC analysis. HPLC analysis was performed by the parameters listed below:
Chromatographic Conditions:
Injection volume: 20.0 μL
Column oven temperature: 45° C.
Sample temperature: 10° C.
Acquisition time: 25 minutes
Water: Acetonitrile (80:20) % v/v
As an example, Table 1 below discloses data collected on sofosbuvir form-M3 under various storage conditions.

[1] = stored at 25 ± 2° C./60 ± 5% RH, 1 months
[2] = stored at 25 ± 2° C./60 ± 5% RH, 2 months
[3] = stored at 25 ± 2° C./60 ± 5% RH, 3 months
[4] = stored at 25 ± 2° C./60 ± 5% RH, 6 months
[5] = stored at 25 ± 2° C./60 ± 5% RH, Initial
[6] = stored at 40 ± 2° C./75 ± 5% RH, 1 months
[7] = stored at 40 ± 2° C./75 ± 5% RH, 2 months
[8] = stored at 40 ± 2° C./75 ± 5% RH, 3 months
[9] = stored at 40 ± 2° C./75 ± 5% RH, 6 months
[10] = stored at 40 ± 2° C./75 ± 5% RH, Initial
[11] = up to six months at 25±2° C./60±5% RH and at 40±2° C./75±5% RH

For `CC(C)OC(=O)[C@H](C)N[P@](=O)(OC[C@H]1O[C@@H](n2ccc(=O)[nH]c2=O)[C@](C)(F)[C@@H]1O)Oc1ccccc1` [sofosbuvir form-M3, (S)-isopropyl 2-((S)-(((2R,3R,4R,5R)-5-(2,4-dioxo3,4-dihydropyrimidin-1(2H)-yl)-4-fluoro-3-hydroxy-4-methyltetrahydrofuran-2yl)methoxy)-(phenoxy)phosphorylamino)propanoate], the “HPLC Purity” value [1] was 99.90%, the PXRD [1] was “form-M3” and the Water content [1] was 3.39%. The “HPLC Purity” value [2] was 99.90%, the PXRD [2] was “form-M3” and the Water content [2] was 3.45%. The “HPLC Purity” value [3] was 99.89%, the PXRD [3] was “form-M3” and the Water content [3] was 3.35%. For the same compound, the “HPLC Purity” value [4] was 99.92%, the PXRD [4] was “form-M3” and the Water content [4] was 3.34%. The “HPLC Purity” value [5] was 99.92%, the PXRD [5] was “form-M3” and the Water content [5] was 3.59%. For the same compound, the “HPLC Purity” value [6] was 99.90%, the PXRD [6] was “form-M3” and the Water content [6] was 3.55%. The “HPLC Purity” value [7] was 99.90%, the PXRD [7] was “form-M3” and the Water content [7] was 3.33%. For the same compound, the “HPLC Purity” value [8] was 99.89%, the PXRD [8] was “form-M3” and the Water content [8] was 3.19%. The “HPLC Purity” value [9] was 99.91%, the PXRD [9] was “form-M3” and the Water content [9] was 3.00%. For the same compound, the “HPLC Purity” value [10] was 99.92%, the PXRD [10] was “form-M3” and the Water content [10] was 3.59%. The “change in PXRD pattern on storage” value [11] was “no significant change in PXRD pattern”, the “change in moisture content on storage” value [11] was “no significant change in moisture content” and the “change in purity on storage” value [11] was “no significant change in purity”.
